Molecular target: T1, HPK1 (Homo sapiens, UniProt Q92918)
T1 construct: A HiBiT tag was introduced by CRISPR on the N terminus of HPK1 in Jurkat cells; host or cells: Jurkat cells (ATCC TIB-152), monoclonal line with CRISPR knock-in of HiBiT at the endogenous HPK1 locus
Test: HPK1 Cellular HiBit Degradation Assay
Assay type: cell-based
Conditions: HiBiT HPK1 Jurkat cells, 24 hrs; for DC50: concentration at which 50% of HPK1 was remaining, read-out: DC50 Category; for Dmax: Jurkat, maximum degradation vs DMSO vehicle control, read-out: Dmax Category
Outline: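 Jurkat cells with CRISPR N-terminal HiBiT-tagged endogenous HPK1 treated 24 h at 37 °C with 11-point, 3.16-fold dilutions (10 uM to 0.1 nM final). HiBiT lytic luminescence gives % HPK1 remaining versus DMSO, with parental cells as background. Four-parameter fit yields DC50; Dmax = 100 minus lowest % remaining.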

T1 sequence (Q92918 whole entry): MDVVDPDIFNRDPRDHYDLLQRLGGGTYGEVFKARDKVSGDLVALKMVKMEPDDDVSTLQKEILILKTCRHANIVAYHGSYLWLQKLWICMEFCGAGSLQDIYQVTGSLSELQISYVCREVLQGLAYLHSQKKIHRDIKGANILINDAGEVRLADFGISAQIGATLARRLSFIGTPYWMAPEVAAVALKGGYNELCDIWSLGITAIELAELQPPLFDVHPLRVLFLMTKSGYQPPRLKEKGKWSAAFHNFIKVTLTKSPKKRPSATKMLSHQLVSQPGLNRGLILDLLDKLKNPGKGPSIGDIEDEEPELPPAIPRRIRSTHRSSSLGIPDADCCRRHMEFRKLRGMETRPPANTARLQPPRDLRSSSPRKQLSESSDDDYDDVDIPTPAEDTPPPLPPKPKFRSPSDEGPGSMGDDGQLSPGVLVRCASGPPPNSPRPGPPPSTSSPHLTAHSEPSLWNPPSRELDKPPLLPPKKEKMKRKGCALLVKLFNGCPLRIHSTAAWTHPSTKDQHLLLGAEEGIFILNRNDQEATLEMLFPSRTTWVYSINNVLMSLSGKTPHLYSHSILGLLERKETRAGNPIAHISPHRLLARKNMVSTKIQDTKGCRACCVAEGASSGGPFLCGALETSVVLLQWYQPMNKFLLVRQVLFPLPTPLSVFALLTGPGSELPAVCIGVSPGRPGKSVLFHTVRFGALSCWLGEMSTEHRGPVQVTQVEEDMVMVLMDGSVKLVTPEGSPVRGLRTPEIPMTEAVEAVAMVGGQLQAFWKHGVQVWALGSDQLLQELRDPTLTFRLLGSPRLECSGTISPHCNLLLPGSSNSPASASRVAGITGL

Question: Which DC50 does the source give for `CC(C)n1cnc2cc(-c3ccc4c(c3)N([C@H]3C[C@@H](N5CCCCC5)C3)C(=O)C43CCN(C(=O)C4CCN(C(=O)C5CCN(c6ncc(C7CCC(=O)NC7=O)cn6)CC5)CC4)CC3)nc(Nc3ccncc3F)c21` (mixture of isomers) [Example 91, (3RS)-3-[2-(4-{4-[(6-{4-[(3-Fluoropyridin-4-yl)amino]-3-(propan-2-yl)-3H-imidazo[4,5-c]pyridin-6-yl}-2-oxo-1-[(1S,3S)-3-(piperidin-1-yl)cyclobutyl]-1,2-dihydrospiro[indole-3,4′-piperidin]-1′-yl)carbonyl]piperidine-1-carbonyl}piperidin-1-yl)pyrimidin-5-yl]piperidine-2,6-dione] here?
Answer: 100 to 500 nM

Question: What about the Dmax of the same compound?
Answer: 50 to 70%

Question: `CC(C)n1cnc2cc(-c3ccc4c(c3)N([C@H]3C[C@@H](N5CCCCC5)C3)C(=O)C43CCN(C(=O)C4CCN(C(=O)CC5CCN(c6ccc(C7CCC(=O)NC7=O)cn6)CC5)CC4)CC3)nc(NC3CC3)c21` (mixture of isomers) [Example 93, (3RS)-3-[6-(4-{2-[4-({6-[4-(cyclopropylamino)-3-(propan-2-yl)-3H-imidazo[4,5-c]pyridin-6-yl]-2-oxo-1-[(1S,3S)-3-(piperidin-1-yl)cyclobutyl]-1,2-dihydrospiro[indole-3,4′-piperidin]-1′-yl}carbonyl)piperidin-1-yl]-2-oxoethyl}piperidin-1-yl)pyridin-3-yl]piperidine-2,6-dione] was tested. Which DC50 did it give?
Answer: < 100 nM

Question: And the Dmax?
Answer: 50 to 70%

Question: Which DC50 does the source give for `CC(C)n1cnc2cc(-c3ccc4c(c3)N([C@H]3C[C@@H](N5CCCCC5)C3)C(=O)C43CCN(C(=O)C4CCN(C(=O)CN5CCN(c6ccc(C7CCC(=O)NC7=O)cn6)CC5)CC4)CC3)nc(NC3CC3)c21` (mixture of isomers) [Example 94, (3RS)-3-[6-(4-{2-[4-({6-[4-(cyclopropylamino)-3-(propan-2-yl)-3H-imidazo[4,5-c]pyridin-6-yl]-2-oxo-1-[(1S,3S)-3-(piperidin-1-yl)cyclobutyl]-1,2-dihydrospiro[indole-3,4′-piperidin]-1′-yl}carbonyl)piperidin-1-yl]-2-oxoethyl}piperazin-1-yl)pyridin-3-yl]piperidine-2,6-dione] here?
Answer: < 100 nM

Question: What about the Dmax of the same compound?
Answer: 50 to 70%

Question: `CC(C)n1cnc2cc(-c3ccc4c(c3)N([C@H]3C[C@@H](N5CCCCC5)C3)C(=O)C43CCN(C(=O)C4CCN(C(=O)CN5CCN(c6ccc(C7CCC(=O)NC7=O)cn6)CC5)CC4)CC3)nc(Nc3ccccc3F)c21` (mixture of isomers) [Example 95, (3RS)-3-{6-[4-(2-{4-[(6-{4-[(2-fluorophenyl)amino]-3-(propan-2-yl)-3H-imidazo[4,5-c]pyridin-6-yl}-2-oxo-1-[(1S,3S)-3-(piperidin-1-yl)cyclobutyl]-1,2-dihydrospiro[indole-3,4′-piperidin]-1′-yl)carbonyl]piperidin-1-yl}-2-oxoethyl)piperazin-1-yl]pyridin-3-yl}piperidine-2,6-dione] was tested. Which DC50 did it give?
Answer: < 100 nM

Question: And the Dmax?
Answer: 70 to 85%

Question: Which DC50 does the source give for `CC(C)n1cnc2cc(-c3ccc4c(c3)N([C@H]3C[C@@H](N5CCCCC5)C3)C(=O)C43CCN(C(=O)C4CCN(C(=O)CN5CCN(c6ccc(C7CCC(=O)NC7=O)cn6)CC5)CC4)CC3)nc(Nc3ccncc3F)c21` (mixture of isomers) [Example 96, (3RS)-3-{6-[4-(2-{4-[(6-{4-[(3-fluoropyridin-4-yl)amino]-3-(propan-2-yl)-3H-imidazo[4,5-c]pyridin-6-yl}-2-oxo-1-[(1S,3S)-3-(piperidin-1-yl)cyclobutyl]-1,2-dihydrospiro[indole-3,4′-piperidin]-1′-yl)carbonyl]piperidin-1-yl}-2-oxoethyl)piperazin-1-yl]pyridin-3-yl}piperidine-2,6-dione] here?
Answer: 100 to 500 nM

Question: What about the Dmax of the same compound?
Answer: 70 to 85%

Question: Which DC50 does the source give for `CC(C)n1cnc2cc(-c3ccc4c(c3)N([C@H]3C[C@@H](N5CCCCC5)C3)C(=O)C43CCN(C(=O)C4CCN(C(=O)N5CCC(c6ccc(C7CCC(=O)NC7=O)cn6)CC5)CC4)CC3)nc(Nc3ccccc3F)c21` (mixture of isomers) [Example 97, (3RS)-3-[6-(1-{4-[(6-{4-[(2-fluorophenyl)amino]-3-(propan-2-yl)-3H-imidazo[4,5-c]pyridin-6-yl}-2-oxo-1-[(1S,3S)-3-(piperidin-1-yl)cyclobutyl]-1,2-dihydrospiro[indole-3,4′-piperidin]-1′-yl)carbonyl]piperidine-1-carbonyl}piperidin-4-yl)pyridin-3-yl]piperidine-2,6-dione] here?
Answer: 500 to 1000 nM

Question: What about the Dmax of the same compound?
Answer: 50 to 70%

Question: What does the source list for `CC(C)n1cnc2cc(-c3ccc4c(c3)N([C@H]3C[C@@H](N5CCCCC5)C3)C(=O)C43CCN(C(=O)C4CCN(CCC5CCN(c6ccc(C7CCC(=O)NC7=O)cn6)CC5)CC4)CC3)nc(Nc3ccccc3F)c21` (mixture of isomers) [Example 98, (3RS)-3-{6-[4-(2-{4-[(6-{4-[(2-fluorophenyl)amino]-3-(propan-2-yl)-3H-imidazo[4,5-c]pyridin-6-yl}-2-oxo-1-[(1S,3S)-3-(piperidin-1-yl)cyclobutyl]-1,2-dihydrospiro[indole-3,4′-piperidin]-1′-yl)carbonyl]piperidin-1-yl}ethyl)piperidin-1-yl]pyridin-3-yl}piperidine-2,6-dione]?
Answer: DC50: 500 to 1000 nM; Dmax: > 85%

Question: How did the DC50 turn out when `Cc1cc(F)c(Nc2nc(-c3ccc4c(c3)N([C@H]3C[C@@H](N5CCCCC5)C3)C(=O)C43CCN(C(=O)CC4CCN(C(=O)C5CCN(C(=O)CNc6cccc7c6C(=O)N(C6CCC(=O)NC6=O)C7=O)CC5)CC4)CC3)cc3ncn(C(C)C)c23)cc1C(=O)NC(C)C` (mixture of isomers) [Example 99, 5-[(6-{1′-[2-(1-{1-[2-({2-[(3RS)-2,6-dioxopiperidin-3-yl]-1,3-dioxo-2,3-dihydro-1H-isoindol-4-yl}amino)acetyl]piperidine-4-carbonyl}piperidin-4-yl)acetyl]-2-oxo-1-[(1S,3S)-3-(piperidin-1-yl)cyclobutyl]-1,2-dihydrospiro[indole-3,4′-piperidin]-6-yl}-3-(propan-2-yl)-3H-imidazo[4,5-c]pyridin-4-yl)amino]-4-fluoro-2-methyl-N-(propan-2-yl)benzamide] was run?
Answer: 500 to 1000 nM

Question: And the Dmax?
Answer: 50 to 70%

Question: `CC(C)n1cnc2cc(-c3ccc4c(c3)N([C@H]3C[C@@H](N5CCCCC5)C3)C(=O)C43CCN(C(=O)c4ccc(C(=O)N5CCN(c6ccc(C7CCC(=O)NC7=O)cn6)C[C@H]5C)cc4)CC3)nc(Nc3ccccc3F)c21` (mixture of isomers) [Example 100, (3RS)-3-{6-[(3R)-4-{4-[(6-{4-[(2-fluorophenyl)amino]-3-(propan-2-yl)-3H-imidazo[4,5-c]pyridin-6-yl}-2-oxo-1-[(1S,3S)-3-(piperidin-1-yl)cyclobutyl]-1,2-dihydrospiro[indole-3,4′-piperidin]-1′-yl)carbonyl]benzoyl}-3-methylpiperazin-1-yl]pyridin-3-yl}piperidine-2,6-dione] was tested. Which DC50 did it give?
Answer: 100 to 500 nM

Question: What about the Dmax of the same compound?
Answer: 70 to 85%

Question: What does the source list for `CC(C)n1cnc2cc(-c3ccc4c(c3)N([C@H]3C[C@@H](N5CCCCC5)C3)C(=O)C43CCN(C(=O)C4(C)CCN(C(=O)[C@H]5CC[C@H](Oc6ccc(C7CCC(=O)NC7=O)cc6)CC5)CC4)CC3)nc(NC3CC3)c21` (mixture of isomers) [Example 101, (3RS)-3-(4-{[(1R,4R)-4-[4-({6-[4-(cyclopropylamino)-3-(propan-2-yl)-3H-imidazo[4,5-c]pyridin-6-yl]-2-oxo-1-[(1S,3S)-3-(piperidin-1-yl)cyclobutyl]-1,2-dihydrospiro[indole-3,4′-piperidin]-1′-yl}carbonyl)-4-methylpiperidine-1-carbonyl]cyclohexyl]oxy}phenyl)piperidine-2,6-dione]?
Answer: DC50: < 100 nM; Dmax: 70 to 85%

Question: Which DC50 does the source give for `CC(C)n1cnc2cc(-c3ccc4c(c3)N([C@H]3C[C@@H](N5CCCCC5)C3)C(=O)C43CCN(C(=O)C4(C)CCN(C(=O)[C@H]5CC[C@H](Oc6ccc(C7CCC(=O)NC7=O)cc6)CC5)CC4)CC3)nc(Nc3ccccc3F)c21` (mixture of isomers) [Example 102, (3RS)-3-(4-{[(1R,4R)-4-{4-[(6-{4-[(2-fluorophenyl)amino]-3-isopropylimidazo[4,5-c]pyridin-6-yl}-2-oxo-1-[(1S,3S)-3-(piperidin-1-yl)cyclobutyl]spiro[indole-3,4′-piperidin]-1′-yl)carbonyl]-4-methylpiperidine-1-carbonyl}cyclohexyl]oxy}phenyl)piperidine-2,6-dione] here?
Answer: < 100 nM

Question: What about the Dmax of the same compound?
Answer: > 85%

Question: What does the source list for `CC(C)n1cnc2cc(-c3ccc4c(c3)N([C@H]3C[C@@H](N5CCCCC5)C3)C(=O)C43CCN(C(=O)C4(C)CCN(C(=O)[C@H]5CC[C@H](Oc6ccc(C7CCC(=O)NC7=O)cc6)CC5)CC4)CC3)nc(Nc3ccncc3F)c21` (mixture of isomers) [Example 103, (3RS)-3-(4-{[(1R,4R)-4-{4-[(6-{4-[(3-Fluoropyridin-4-yl)amino]-3-(propan-2-yl)-3H-imidazo[4,5-c]pyridin-6-yl}-2-oxo-1-[(1S,3S)-3-(piperidin-1-yl)cyclobutyl]-1,2-dihydrospiro[indole-3,4′-piperidin]-1′-yl)carbonyl]-4-methylpiperidine-1-carbonyl}cyclohexyl]oxy}phenyl)piperidine-2,6-dione]?
Answer: DC50: < 100 nM; Dmax: 70 to 85%

Question: `CC(C)n1cnc2cc(-c3ccc4c(c3)N([C@H]3C[C@@H](N5CCCCC5)C3)C(=O)C43CCN(C(=O)C4(C)CCN(C(=O)[C@H]5CC[C@H](Oc6ccc(C7CCC(=O)NC7=O)cn6)CC5)CC4)CC3)nc(NC3CC3)c21` (mixture of isomers) [Example 104, (3RS)-3-(6-{[(1R,4R)-4-[4-({6-[4-(cyclopropylamino)-3-(propan-2-yl)-3H-imidazo[4,5-c]pyridin-6-yl]-2-oxo-1-[(1S,3S)-3-(piperidin-1-yl)cyclobutyl]-1,2-dihydrospiro[indole-3,4′-piperidin]-1′-yl}carbonyl)-4-methylpiperidine-1-carbonyl]cyclohexyl]oxy}pyridin-3-yl)piperidine-2,6-dione] was tested. Which DC50 did it give?
Answer: < 100 nM

Question: And the Dmax?
Answer: 70 to 85%
